Results taken from patent publication US12714682B2, “Calixarene compounds and uses thereof” (UNIVERSITÄT WIEN, priority 2019, dated 2026).
“Also recorded” adds a separate entry of the source.

What was measured:
[1] = system: aged mice; assay: Lung lysate cytokines in aged mice (animal model of ageing); assay type: in vivo; conditions: 30 mg/kg i.p., 2 or 3 days intervals for 2 weeks
Experimental: In a second set of experiments, the anti-inflammatory effect of SCA-744 was tested in vivo, in an animal model of ageing. It is well established that the ageing process is associated with low-grade inflammation. Mice older than 18 months show many characteristics of aged humans and are considered as a relevant model of human ageing. […] After treatment of aged mice (5 mice/group) with SCA-744 for 2 weeks (at 2 or 3 days intervals at 30 mg/kg dose, i.p.), lungs of the mice were harvested and lysates were prepared. Cytokine levels were determined by LEGENDplex™ Mouse Inflammation Panel assay from BioLegend. […] Importantly, the anti-inflammatory cytokine IL-10 was not affected by SCA-744.

[2] = system: NQO1; assay: NQO1 immunoblot in HeLa cells; assay type: cell-based, human; conditions: 48 hours
Experimental: A specific anti-oxidative effect or activity of a compound is proven, if induces the expression of NQO1 in mammalian cells to a higher level than over vehicle treated cells, preferably by ~3 fold when the compound is used at 500 μM, as determined by a standard assay: Semi-quantitative western blot analysis. HeLa cells are treated with vehicle, 50, 100 and 500 μM of the compound for 48 h and lysed in Triton X-100 extraction buffer (50 mM HEPES [pH 7.4], 140 mM NaCl, 1% Triton X-100, 1 mM EDTA, 0.3 mM DTT and Complete Protease Inhibitor Cocktail). 25 μg of whole cell extract are separated on a 10% SDS-PAGE, after transfer to a PVDF membrane (Bio-Rad), proteins detected by use of standard immunoblotting procedures. […] For the analysis and quantification of the protein levels, Gel Analyzer from ImageJ (National Institute of Health, USA: http://imagej.nih.gov/ij) is used.
To verify experimentally the anti-oxidative effect of SCA-744, the induction of one of these three genes, NQO1, a major anti-oxidative enzyme was investigated. […] In fact, no NQO1 was detected in control cells under the applied experimental conditions, while a prominent signal was induced even at 50 μM, the lowest concentration of SCA-744 tested, that increased by increasing SCA-744 concentrations (approximately 3.5 fold higher signal at 500 μM). […]

[3] = system: SH-SY5Y neuroblastoma cells; assay: MPP+ induced mitochondria fragmentation in SH-SY5Y cells (MitoTracker confocal imaging); assay type: cell-based, human; conditions: MPP+ 0.5 mM 48 hours, SCA-744 500 μM
Experimental: To test whether SCA-744 would be able to rescue cells from oxidative damage induced by mitochondrial dysfunction, SH-SY5Y neuroblastoma cells were treated with 1-methyl-4-phenylpyridinium (MPP+) (0.5 mM, 48 hours) to induce mitochondria fragmentation. […] To visualize mitochondria, cells were incubated with MitoTracker Red CMXRos, a mildly thiol-reactive chloromethyl moiety for mitochondria labelling (MitoTracker Red CMXRos #9082 Cell Signaling), fixed and mounted. Mitochondrial morphology was imaged with a laser scanning confocal microscope LSM710 Zeiss.

[4] = system: mice; assay: CFA-induced chronic arthritis model: joint histology; assay type: in vivo; conditions: 60 mg/kg i.p. daily, 21-day period
Experimental: The chronic arthritis was induced by intraplantar (i.pl.) injection of 20 μl complete Freund's adjuvant (CFA, heat-killed Mycobacterium suspended in paraffin oil, 1 mg/ml; Sigma Aldrich, St. Louis, MO, USA) into the right hind paw and 20 μl subcutaneously (s.c.) into the tail root. An additional s.c. injection (20 μl) was administered on the following day (day 1) into the tail root in order to potentiate the systemic effects mimicking the human condition.
The excised tibiotarsal joints are fixed in 4% buffer formaldehye, decalcified and paraffin-embedded, sliced into sections (5 μm) and stained with hematoxylin and esosin. Arthritic changes are scored by a blinded observer using a scale of 0 to 3 according to 1) mononuclear cells infiltration into areolar tissue, 2) synovial hyperplasia, 3) cartilage destruction, 4) bone erosion.

[5] = system: neuroblastoma cells; assay: Protection from MPP+ induced oxidative stress, CellTiter-Glo viability; assay type: cell-based
Experimental: Several in-vivo and in-vitro studies find that MPP+ exerts oxidative stress on cells^22. MPP+×toxicity is based on its uptake into dopaminergic neurons. MPP+ accumulate into the mitochondria, inhibiting the complex-I leading to ATP depletion, increased reactive oxygen species (ROS) production, and apoptotic cell death^23. 12 h following MPP+ treatment and SCA-744 and CAL-X incubation, cell viability was assessed using a standard ATP method, CellTiter-Glo® Luminescent Cell Viability Assay.

In the case of `O=S(=O)(O)c1cc2c(O)c(c1)Cc1cc(S(=O)(=O)O)cc(c1O)Cc1cc(S(=O)(=O)O)cc(c1O)Cc1cc(S(=O)(=O)O)cc(c1O)C2` [SCA-744, 4-sulfocalix[4]arene], the “IL-6, TNF-α and lipocalin (LCN2) in lung lysates” value [1] was “Significantly decreased amounts”, the “anti-inflammatory cytokine IL-10 in lung lysates” value [1] was “not affected” and the “NQO1 immunoblot signal increase” value ([2]; HeLa, 500 μM, prominent signal already at 50 μM, none in control) was “approximately 3.5 fold”. The “NQO1 protein expression (immunoblot)” value ([2]; HeLa, 50, 100 and 500 μM) was “significantly increases the expression; also recorded: very significant up-regulation”, the “mitochondria integrity after MPP+” value [3] was “protects against cell death and restores mitochondria integrity; also recorded: cells maintained the integrity of mitochondria” and the “synovial hyperplasia score (scale 0 to 3)” value [4] was “significantly lower”. The “protection from MPP+ induced apoptosis / damage” value ([5]; 0.1-1000 μM, 12 h) was “protects against oxidative stress from MPP+ induced damage; also recorded: protected neuroblastoma cells from MPP+ induced apoptosis” and the “concentration for MPP+ protection” value ([5]; 12 h following MPP+ treatment, CellTiter-Glo) was 1 µM.
